This experiment concerns the target T1, PKCζ (Homo sapiens, UniProt Q05513).
T1 construct: gene PRKCZ

T1 sequence (Q05513 1-113): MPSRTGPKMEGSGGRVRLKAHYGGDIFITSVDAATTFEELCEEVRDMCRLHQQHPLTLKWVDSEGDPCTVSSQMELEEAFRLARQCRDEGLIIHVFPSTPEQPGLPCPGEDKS
T1 sequence (Q9NPB6 whole entry partner): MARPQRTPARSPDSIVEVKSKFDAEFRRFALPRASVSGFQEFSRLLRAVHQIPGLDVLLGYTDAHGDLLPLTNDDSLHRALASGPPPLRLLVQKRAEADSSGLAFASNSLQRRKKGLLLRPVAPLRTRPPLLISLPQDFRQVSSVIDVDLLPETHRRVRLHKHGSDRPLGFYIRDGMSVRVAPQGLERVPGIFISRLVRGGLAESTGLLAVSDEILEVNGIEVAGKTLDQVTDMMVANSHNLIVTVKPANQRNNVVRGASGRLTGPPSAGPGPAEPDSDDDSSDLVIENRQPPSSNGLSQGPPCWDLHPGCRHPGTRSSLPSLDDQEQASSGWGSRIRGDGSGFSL

For orientation: IC50 means the midpoint of a concentration-inhibition curve. A low value points to greater potency in that assay. As for `O=C(O)CC([S][Au])C(=O)O` (stereo not shown) [ATM, Aurothiomalate], the half-inhibitory concentration (IC50) turned out to be 3 µM.

Source of the values: PMC4558152, “A small molecule inhibitor of atypical protein kinase C signaling inhibits pancreatic cancer cell transformed growth and invasion” (Oncotarget, 2015).
